Experimental data as given in PubChem BioAssay (NCI).
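These data come from cells grown in 96-well plates and exposed to compound for 48 hours at five concentrations. Abbreviation: GI50, concentration required for 50% inhibition of growth. TGI is the concentration that stops growth completely.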

Legend:
Experiment in all cases: NCI tumour cell line growth inhibition, 48 h
CAKI-1 renal = system: CAKI-1 renal
HS 578T breast = system: HS 578T breast
MDA-MB-435 = system: MDA-MB-435
NCI-H460 lung = system: NCI-H460 lung
SF-268 CNS = system: SF-268 CNS
SF-295 CNS = system: SF-295 CNS
SK-MEL-5 melanoma = system: SK-MEL-5 melanoma
UACC-62 melanoma = system: UACC-62 melanoma
EKVX NSCLC = system: EKVX NSCLC
MALME-3M melanoma = system: MALME-3M melanoma

SMILES	GI50 (CAKI-1 renal) [µM]	TGI (CAKI-1 renal) [µM]	GI50 (HS 578T breast) [µM]	TGI (HS 578T breast) [µM]	GI50 (MDA-MB-435) [µM]	TGI (MDA-MB-435) [µM]	GI50 (NCI-H460 lung) [µM]	TGI (NCI-H460 lung) [µM]	GI50 (SF-268 CNS) [µM]	TGI (SF-268 CNS) [µM]	GI50 (SF-295 CNS) [µM]	TGI (SF-295 CNS) [µM]	GI50 (SK-MEL-5 melanoma) [µM]	TGI (SK-MEL-5 melanoma) [µM]	GI50 (UACC-62 melanoma) [µM]	TGI (UACC-62 melanoma) [µM]	GI50 (EKVX NSCLC) [µM]	TGI (EKVX NSCLC) [µM]	GI50 (MALME-3M melanoma) [µM]	TGI (MALME-3M melanoma) [µM]
CCCc1cc(=O)[nH]c(-n2nc(C)cc2C)n1	2.47	26.3	15	> 100	4.67	32.4	1.26	> 100	3.19	> 100	1.07	8.81	3.18	47.6	2.31	35.7	–	–	–	–
Cc1cc(C(=C2C=CC(=Nc3ccccc3)C=C2)c2ccc(Nc3ccccc3)cc2)ccc1N	–	–	–	–	–	–	0.223	0.532	0.651	1.83	0.385	1.35	0.253	0.718	0.25	0.796	0.334	1.26	0.25	0.777
O=C(NC(=O)c1cn(CCN(CCO)C(=O)NCCCCCCNC(=O)N(CCO)CCn2cc(C(=O)NC(=O)OCc3ccccc3)c(=O)[nH]c2=O)c(=O)[nH]c1=O)OCc1ccccc1	–	> 100	–	–	–	–	–	> 100	–	–	–	> 100	–	> 100	–	> 100	–	> 100	–	> 100
O=c1c2ccccc2c(=O)n2n1CC=CC2	–	> 100	–	–	–	–	–	–	–	> 100	–	> 100	–	> 100	–	> 100	–	> 100	–	> 100
O=C(Nc1cccc(-n2cc(-c3ccncc3)c(-c3cc(O)cc(Cl)c3)n2)c1)Nc1ccc(Cl)c(C(F)(F)F)c1	2.68	7.87	3.29	> 100	1.78	3.89	2.59	7.37	3.1	16	2.05	4.95	1.69	3.23	2.08	4.38	–	–	2.37	6.25
COc1ccc2c(c1)[n+]([O-])c(-c1ccc(OC)c(OC)c1)c(N)[n+]2[O-]	–	72.2	–	–	–	–	–	> 100	–	> 100	–	> 100	–	83	–	> 100	–	> 100	–	> 100
COc1cc(Nc2c(C#N)cnc3cc(OCCCN4CCN(C)CC4)c(OC)cc23)c(Cl)cc1Cl	0.482	5.13	1.6	26	1.97	5.36	3.99	17.7	2.34	10.3	7.55	21	2.09	5.71	2.48	7.01	–	–	1.83	3.67
CCN(CC)CCOc1ccc(CCc2cc(OC)c(OC)c(OC)c2)cc1	–	> 100	–	–	–	–	–	> 100	–	> 100	–	50.5	–	29.7	–	66.3	–	> 100	–	> 100
O=C(CC(=O)C1=CNc2ccccc2S1)C(=O)Nc1ccc(Cl)cc1	–	> 50	–	–	–	–	–	> 50	–	> 50	–	> 50	–	> 50	–	> 50	–	> 50	–	> 50
COC1OC(CBr)C(OC(=O)c2ccccc2)C(O)C1Br (stereo unspecified)	–	> 100	–	–	–	–	–	> 100	–	> 100	–	> 100	–	> 100	–	> 100	–	–	–	> 100
C1COCCN1.C1COCCN1.NC1CCCCC1N.[Cl-].[Pt+2] (stereo unspecified)	> 100	> 100	–	–	–	–	> 100	> 100	> 100	> 100	> 100	> 100	> 100	> 100	> 100	> 100	> 100	> 100	50.6	> 100
CCn1cc(C(=O)N/N=C/c2ccccc2)c(=O)c2cc(F)c(N3CCNC(C)C3)c(F)c21 (stereo unspecified)	1.75	3.14	–	–	1.91	3.36	–	–	1.96	3.62	1.83	3.35	1.76	3.14	–	–	1.68	3.09	–	–
O=C1C2C3C=C4c5ccccc5N(c5ccccc5)C4(C2C(=O)N1c1ccc(Cl)cc1)[C@H]1C(=O)N(c2ccc(Cl)cc2)C(=O)[C@@H]31 (stereo partly specified)	–	76.3	–	–	–	–	–	> 100	–	–	–	> 100	–	> 100	–	> 100	–	> 100	–	> 100
CC(=O)NNc1nc(C)c(C(=O)/C=C/c2ccccc2Cl)s1	–	> 100	–	–	–	–	–	> 100	–	> 100	–	> 100	–	> 100	–	> 100	–	> 100	–	> 100
N.N.N.N.N.[Cl-].[Co+3].c1ccc(-c2nn[n-]n2)cc1	> 100	> 100	–	–	–	–	> 100	> 100	> 100	> 100	> 100	> 100	> 100	> 100	> 100	> 100	> 100	> 100	> 100	> 100
COc1cccc(C2=C(c3c(C)n(C)c4ccccc34)C(=O)NC2=O)c1	> 25	> 25	12.1	> 25	7.33	> 25	> 25	> 25	> 23.1	> 25	> 25	> 25	9.81	> 25	12.3	> 25	–	–	> 21.2	> 25
CN[C@H](C#Cc1c(F)ccc2c1/C(=C/c1[nH]ccc1OC)C(=O)N2)CO	0.0314	0.736	0.212	12.9	0.354	2.82	0.358	2.58	0.509	2.21	0.946	25	0.511	1.92	0.671	4.6	–	–	1.46	5.06
